Laboratory results: ChEMBL document CHEMBL2074530, “Interaction of ivermectin with multidrug resistance proteins (MRP1, 2 and 3)” (Chem Biol Interact, 2006)

Molecular target: Multidrug resistance-associated protein 1 (Homo sapiens, UniProt P33527)
Test: TP_TRANSPORTER: inhibition of BODIPY-ivermectin transport in HL60-MRP1 cells
Type: functional, cell-based

Chain of Multidrug resistance-associated protein 1 (P33527 whole entry): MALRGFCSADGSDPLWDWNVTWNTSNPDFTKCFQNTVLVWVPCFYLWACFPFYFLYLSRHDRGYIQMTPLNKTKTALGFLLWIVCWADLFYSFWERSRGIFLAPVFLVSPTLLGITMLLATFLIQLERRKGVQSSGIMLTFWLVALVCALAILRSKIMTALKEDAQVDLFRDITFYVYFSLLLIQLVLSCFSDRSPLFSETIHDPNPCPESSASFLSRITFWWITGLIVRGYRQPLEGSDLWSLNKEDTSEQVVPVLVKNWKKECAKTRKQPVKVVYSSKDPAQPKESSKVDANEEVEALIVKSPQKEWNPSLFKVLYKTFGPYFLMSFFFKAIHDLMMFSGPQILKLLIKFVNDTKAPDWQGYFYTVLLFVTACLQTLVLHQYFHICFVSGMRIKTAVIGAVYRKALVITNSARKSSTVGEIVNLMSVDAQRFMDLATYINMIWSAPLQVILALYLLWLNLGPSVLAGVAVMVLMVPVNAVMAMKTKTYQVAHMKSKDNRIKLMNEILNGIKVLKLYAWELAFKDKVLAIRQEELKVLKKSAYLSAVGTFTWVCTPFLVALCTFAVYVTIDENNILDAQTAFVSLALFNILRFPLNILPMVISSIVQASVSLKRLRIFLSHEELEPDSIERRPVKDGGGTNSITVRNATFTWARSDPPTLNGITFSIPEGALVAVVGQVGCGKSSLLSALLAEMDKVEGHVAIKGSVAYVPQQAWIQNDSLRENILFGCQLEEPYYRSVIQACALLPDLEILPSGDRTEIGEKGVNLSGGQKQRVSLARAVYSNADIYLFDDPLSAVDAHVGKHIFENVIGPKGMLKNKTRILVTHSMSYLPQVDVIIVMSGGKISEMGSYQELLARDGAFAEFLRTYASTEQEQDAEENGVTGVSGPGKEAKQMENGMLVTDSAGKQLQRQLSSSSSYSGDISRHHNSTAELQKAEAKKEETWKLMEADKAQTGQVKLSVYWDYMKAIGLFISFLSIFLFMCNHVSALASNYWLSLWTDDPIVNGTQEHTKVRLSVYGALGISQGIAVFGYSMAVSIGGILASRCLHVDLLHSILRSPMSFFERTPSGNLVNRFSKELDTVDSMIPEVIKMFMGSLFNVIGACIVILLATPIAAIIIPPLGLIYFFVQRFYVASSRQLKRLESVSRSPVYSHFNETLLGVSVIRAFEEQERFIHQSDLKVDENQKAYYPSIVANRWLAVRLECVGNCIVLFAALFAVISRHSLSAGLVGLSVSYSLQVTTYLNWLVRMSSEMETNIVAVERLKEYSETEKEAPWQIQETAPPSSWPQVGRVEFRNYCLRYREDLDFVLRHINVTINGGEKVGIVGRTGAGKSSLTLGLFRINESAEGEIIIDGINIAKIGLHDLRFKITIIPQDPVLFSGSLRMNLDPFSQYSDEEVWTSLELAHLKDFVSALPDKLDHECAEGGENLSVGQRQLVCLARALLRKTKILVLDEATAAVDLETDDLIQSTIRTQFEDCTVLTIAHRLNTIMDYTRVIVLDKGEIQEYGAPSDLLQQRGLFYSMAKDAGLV

Sequence: IVERMECTIN
- Activity: inhibitor [+]
